Assay results taken from patent US10793576B2, “Compound used as Bruton's tyrosine kinase inhibitor and preparation method and application thereof” (Chengdu Brilliant Pharmaceutical Co., LTD., priority 2017, dated 2020).
Where two headings read alike, the source gives them in different places.

Legend:
DOHH2 cells = test: Cell proliferation inhibition in vitro, DOHH2 cells by CTG assay; assay type: cell-based; conditions: read-out: Inhibitions of cell activities IC50 (nM) DOHH2
Method: (§1) Test Example 2: Determination of the Inhibition of Cell Proliferation Inhibitory Activity in
(§2) vitro of compounds using different cell lines
(§3) 2: Preparation of the Compounds:
(§4) The compounds to be tested were diluted with DMSO to prepare a mother liquor at a final concentration of 10 mM for later use.
3.2 Test of DOHH2 Cells by CTG Assay
(§5) Logarithmic growth phase cells were collected, counted and resuspended in complete medium. The cell concentration was adjusted to a suitable concentration (determined according to the cell density optimization test results), and seeded to 96-well plate and 100 μl of the cell suspension was added to each well. The cells were incubated in an incubator at 37° C., 100% relative humidity and 5% C02 for 24 hours.
The compounds to be tested were diluted with the medium to the set corresponding action concentration, and the cells were added at 10 µl/well. The cells were incubated in an incubator set at 37° C., 100% relative humidity and 5% C02 for 72 hours.
The medium was aspirated and discarded, and 30 μl of test reagent was added. The plate was gentle shaken away from the light to lyse the cells.
(§6) As: OA of the sample (cell+test reagent+test compound)
(§7) Ac: OA of the negative control (cell+test reagent+DMSO)
(§8) Ab: OA of the positive control (medium+test reagent+DMSO)
(§9) IC50 curve fitting was performed using the software Graphpad Prism 5 or XLfit and IC50 values were calculated.

TMD8 cells = test: Cell proliferation inhibition in vitro, TMD8 cells by CCK-8 method; assay type: cell-based; conditions: 72 hours, read-out: Inhibitions of cell activities IC50 (nM) TMD8
Method: as §1, §2, §3, §4
(§10) 3.1. Test of TMD8 and OCI-ly10 Cells by CCK-8 Method
as §5
(§11) The compounds to be tested were diluted with the medium to the set corresponding action concentration, and the cells were added at 25 µl/well. The cells were incubated in an incubator at 37° C., 100% relative humidity and 5% C02 for 72 hours.
(§12) The medium was aspirated and discarded, and a complete medium containing 10% of the test reagent was added and the obtained system was incubated in a 37° C. incubator for 1 hour-4 hours.
as §6, §7, §8, §9

OCI-LY10 cells = test: Cell proliferation inhibition in vitro, OCI-ly10 cells by CCK-8 method; assay type: cell-based; conditions: 72 hours, read-out: Inhibitions of cell activities IC50 (nM) OCI-LY10
Method: as §1, §2, §3, §4, §10, §5, §11, §12, §6, §7, §8, §9

[1] = Pharmacokinetic test in SD rats (oral 10 mg/kg, intravenous 1 mg/kg); assay type: in vivo; conditions: SD rat; for F (po) %: oral 10 mg/kg vs intravenous 1 mg/kg; for clearance / half-life / AUC / Cmax / Tmax: male, plasma; for clearance / half-life: intravenous 1 mg/kg; for clearance: read-out: Cl (iv) (converted); for half-life: read-out: T½ (iv) h (converted); for AUC / Cmax / Tmax: oral 10 mg/kg
Method: SD rat, male (purchased from Shanghai Sippr-Bk Laboratory Animal Co., Ltd.), each tested compound was administered at a single dose to SD rats by oral administration (10 mg/kg, 3 rats in each group) and intravenous administration (1 mg/kg, 3 rats in each group) for the pharmacokinetic study. The tested compounds were dissolved using DMSO/[…] sodium chloride injection=5/95 (V/V), and vortexed for 1 minute, and after 1 minute of sonication, the compounds were formulated into solutions for administrations. Animals were fasted for 16-17 hours prior to oral administration and feeding was restored 4 hours after administration. After oral and intravenous administration, pharmacokinetic samples were collected from SD rats by jugular vein or cardiac puncture at the following time points: before administration, 5 minute, 15 minute, 30 minute, 1 hour, 2 hours, 4 hours, 6 hours, 8 hours and 24 hours after administration. 3 whole blood samples were collected at each time point, and the collected amount was about 0.2 mL, and the collected samples were anticoagulated by heparin sodium. After collection, the blood samples were immediately placed on ice and centrifuged to separate plasma within 30 minutes (centrifugation conditions: 8000 rpm, 6 minute, 2-8° C.). The collected plasma was stored at −70° C. prior to analysis. 50 μL of plasma sample was brought into a 1.5 mL centrifuge tube, 250 μL of internal standard solution (blank with no internal standard but the same volume of methanol added) was added, blended with vortex, centrifuged at 15000 rpm for 5 minutes. 200 μL of supernatant was taken and added to a 96-well sample plate and the samples were analyzed by LC-MS/MS.

hERG potassium channel = hERG potassium channel (Homo sapiens (Human), UniProt Q12809); test: hERG experiment to investigate potential cardiotoxicity (manual patch clamp, CHO hERG cells); assay type: cell-based; conditions: whole cell patch clamp, tail current
hERG potassium channel, sequence (Q12809 whole entry): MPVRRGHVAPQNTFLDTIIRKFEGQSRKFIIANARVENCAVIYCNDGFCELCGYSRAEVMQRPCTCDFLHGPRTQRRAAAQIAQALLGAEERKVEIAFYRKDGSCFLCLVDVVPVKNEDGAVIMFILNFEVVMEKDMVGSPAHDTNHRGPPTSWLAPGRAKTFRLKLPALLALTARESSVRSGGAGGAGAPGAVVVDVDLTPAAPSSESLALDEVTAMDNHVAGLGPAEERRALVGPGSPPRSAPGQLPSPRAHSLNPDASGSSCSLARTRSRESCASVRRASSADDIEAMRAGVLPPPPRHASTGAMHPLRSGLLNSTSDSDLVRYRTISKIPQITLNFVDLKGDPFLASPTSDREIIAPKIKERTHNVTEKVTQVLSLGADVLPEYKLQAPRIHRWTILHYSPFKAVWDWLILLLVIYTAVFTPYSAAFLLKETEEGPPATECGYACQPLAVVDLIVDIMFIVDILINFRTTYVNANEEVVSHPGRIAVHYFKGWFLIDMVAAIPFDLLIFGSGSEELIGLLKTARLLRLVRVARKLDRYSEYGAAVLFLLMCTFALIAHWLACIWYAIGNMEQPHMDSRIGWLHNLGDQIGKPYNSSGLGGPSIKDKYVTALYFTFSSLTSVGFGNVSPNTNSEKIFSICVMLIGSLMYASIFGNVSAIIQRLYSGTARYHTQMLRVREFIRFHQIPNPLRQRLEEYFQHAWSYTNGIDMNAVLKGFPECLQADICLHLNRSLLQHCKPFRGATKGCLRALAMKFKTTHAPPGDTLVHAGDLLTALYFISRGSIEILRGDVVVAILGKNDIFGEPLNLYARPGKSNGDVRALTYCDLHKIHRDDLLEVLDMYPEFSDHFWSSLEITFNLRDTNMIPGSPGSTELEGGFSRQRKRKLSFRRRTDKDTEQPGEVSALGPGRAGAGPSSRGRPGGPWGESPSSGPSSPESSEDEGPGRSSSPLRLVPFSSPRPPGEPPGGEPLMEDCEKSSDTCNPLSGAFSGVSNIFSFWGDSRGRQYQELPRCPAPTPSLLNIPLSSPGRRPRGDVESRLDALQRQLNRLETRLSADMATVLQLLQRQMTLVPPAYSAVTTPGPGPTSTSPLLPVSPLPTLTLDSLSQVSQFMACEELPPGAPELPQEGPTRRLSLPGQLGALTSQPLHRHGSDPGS
Method: CHO hERG cells were grown in a culture dish containing the above medium, and cultured in an incubator at 37° C. and 5% CO2. CHO hERG cells were transferred to circular glass slides placed in the culture dish 24-48 hours prior to electrophysiological experiments and grown under the same medium and culture conditions as above. The density of CHO hERG cells on each circular slide shall meet the requirement that most of the cells are independent and individual.
2: Preparation of Experimental Solutions
3: Electrophysiological Recording System
A manual patch clamp system (HEKA EPC-10 signal amplifier and digital conversion system, purchased from HEKA Electronics, Germany) is used in this experiment for whole cell currents recording. A circular slide with CHO hERG cells grown on its surface was placed in an electrophysiology recording tank under an inverted microscope. The extracellular fluid was continuously perfused in the recording tank (about 1 ml per minute). A conventional whole cell patch clamp current recording technique was used in the experimental procedure. Unless otherwise specified, the experiments were carried out at conventional room temperature (about 25° C.). The cells were clamped at a voltage of −80 mV. The clamp voltage for cells was depolarized to +20 mV to activate the hERG potassium channel, and after 5 seconds, the cells were clamped to −50 mV to eliminate inactivation and generate a tail current. The tail current peak was used as the value of the hERG current magnitude. After the hERG potassium current recorded in the above step was stable under the continuous extracellular fluid perfusion in the recording tank, the drug to be tested can be perfused simultaneously and filled until the inhibitory effect of the drug on the hERG current reached a steady state. Generally, the superposition of the last three consecutive current recording lines was used as a criterion for judging whether or not the state was stable. After reaching a steady state, a wash with extracellular fluid perfusion was conducted until the hERG returned to that before the drug was added. One cell can be used to test one or more drugs, or multiple concentrations of the same drug, but need to be washed with an extracellular fluid between different drugs. Cisapride (purchased from Sigma) was used as a positive control in the experiment to ensure that the cells used were of normal quality.
4: Treatment and Dilution of Compounds
Prior to testing, the compounds were first diluted to 10, 3, 1, 0.3, and 0.1 mM stock solutions by a method of gradual dilution with DMSO, and were then diluted to the final M test concentration with extracellular fluids. The final concentration of DMSO in each of the other compound solutions was 0.1%, except that the DMSO concentration in the 30 μM compound test solution was 0.3%. The test concentration of the positive control (Cisapride) was 0.1 μM. All compound solutions were sonicated and shaken for a routine of 5 to 10 minutes to ensure complete dissolution of the compounds.
The test data were analyzed by HEKA Patchmaster, Microsoft Excel and data analysis software provided by Graphpad Prism.

BTK kinase = BTK kinase (Homo sapiens (Human), UniProt Q06187); test: In vitro assay for the inhibition of BTK kinase activity (Mobility-Shift Assay); assay type: biochemical
BTK kinase, sequence (Q06187 whole entry): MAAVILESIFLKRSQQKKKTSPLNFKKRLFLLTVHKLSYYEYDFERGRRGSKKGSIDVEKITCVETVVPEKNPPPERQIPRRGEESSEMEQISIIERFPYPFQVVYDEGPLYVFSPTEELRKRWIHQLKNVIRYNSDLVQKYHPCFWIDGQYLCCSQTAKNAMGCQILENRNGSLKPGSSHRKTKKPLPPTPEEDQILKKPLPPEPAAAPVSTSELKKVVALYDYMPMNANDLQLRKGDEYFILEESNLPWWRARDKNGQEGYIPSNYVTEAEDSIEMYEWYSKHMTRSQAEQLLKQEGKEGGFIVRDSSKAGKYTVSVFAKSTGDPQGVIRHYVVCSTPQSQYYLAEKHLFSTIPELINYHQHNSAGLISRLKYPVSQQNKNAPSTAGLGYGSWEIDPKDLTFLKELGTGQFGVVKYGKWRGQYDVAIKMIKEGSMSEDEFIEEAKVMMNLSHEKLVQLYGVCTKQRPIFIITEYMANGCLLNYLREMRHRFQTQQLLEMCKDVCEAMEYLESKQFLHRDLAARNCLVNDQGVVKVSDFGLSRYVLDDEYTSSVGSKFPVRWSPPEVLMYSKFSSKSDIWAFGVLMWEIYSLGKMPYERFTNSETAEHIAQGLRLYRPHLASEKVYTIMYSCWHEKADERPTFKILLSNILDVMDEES
In short: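 Fluorescently labelled peptide substrate converted by the kinase; substrate and phosphorylated product separated by charge on a microfluidic chip (mobility shift) and quantified separately. Results expressed as conversion rate; control wells received 100% DMSO.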

Row | SMILES | IC50 (DOHH2 cells; Homo sapiens, DOHH-2, 72 hours) [nM] | IC50 (TMD8 cells; Homo sapiens) [nM] | IC50 (OCI-LY10 cells; Homo sapiens) [nM] | F (po) % [1] [%] | clearance [1] [mL/min/kg] | half-life [1] [min] | AUC [1] [ng·h/mL] | Cmax [1] [ng/mL] | Tmax [1] [min] | IC50 (hERG potassium channel) [nM] | IC50 (BTK kinase) [nM] | IC50 (DOHH2 cells; 72 hours) [nM] | IC50 (TMD8 cells) [nM] | IC50 (OCI-LY10 cells) [nM]
1 | CC#CC(=O)N1CCC[C@H]1c1nc(-c2ccc(C(=O)Nc3ccccn3)cc2)c2c(N)nccn12 [ACP-196, reference compound] | > 1000 | 1.3 | 1.4 | 19.75 | 125 | 7.8 | 266 | 266 | 4.8 | – | – | – | – | –
2 | C=CC(=O)N1CC2CCCC2C1c1nc(-c2ccc(C(=O)Nc3ccccn3)cc2)c2c(N)nccn12 (stereo not drawn) [Example 3] | 191 | 0.26 | 0.24 | 52.55 | 57 | 37.2 | 1490 | 1620 | 16.2 | > 30000 | – | – | – | –
3 | C=CC(=O)N1C[C@H]2[C@@H]([C@H]1c1nc(-c3ccc(C(=O)Nc4ccccn4)cc3)c3c(N)nccn13)C2(C)C [Example 5] | 175 | 3.6 | 0.21 | 20.64 | 121 | 7.8 | 278 | 303 | 6 | > 30000 | 21 | – | – | –
4 | C=CC(=O)N1C2C[C@@H](C1c1nc(-c3ccc(C(=O)Nc4ccccn4)cc3)c3c(N)nccn13)N(C(C)=O)C2 (stereo partly drawn) [Example 18] | 177 | 1.6 | 0.25 | – | – | – | – | – | – | > 30000 | 1.4 | – | – | –
5 | C=CC(=O)N1CC2CCCC2C1c1nc(-c2ccc(Oc3ccccc3)cc2)c2c(N)nccn12 (stereo not drawn) [Example 96] | 200 | 3.2 | 0.34 | 34.53 | 32.7 | 33 | 1580 | 1590 | 21.6 | – | 3.1 | – | – | –
6 | C=CC(=O)N1CC2CCCC2[C@H]1c1nc(-c2ccc(Oc3ccccc3)cc2)c2c(N)nccn12 (stereo partly drawn) [Example 96] | – | – | – | – | – | – | – | – | – | > 30000 | – | – | – | –
7 | CN(C/C=C/C(=O)N1CC2CCCC2[C@H]1c1nc(-c2ccc(C(=O)Nc3ccccn3)cc2)c2c(N)nccn12)C1CC1 (stereo partly drawn) [Example 115, 4-(8-amino-3-((1S)-2-((E)-4-(cyclopropyl(methyl)amino)-2-butenoyl)octahydrocyclopenta[c]pyrrol-1-yl)imidazo[1,5-a]pyrazin-1-yl)-N-(pyridin-2-yl) benzamide] | > 1000 | 17.6 | 12.1 | – | – | – | – | – | – | – | 26 | – | – | –
8 | C=CC(=O)N1[C@H]2CC[C@@H]1[C@@H](c1nc(-c3ccc(C(=O)Nc4ccccn4)cc3)c3c(N)nccn13)C2 [Example 118, 4-(3-((1R,2S,4S)-7-acryloyl-7-azabicyclo[2.2.1]heptan-2-yl)-8-aminoimidazo[1,5-a]pyrazin-1-yl)-N-(pyridin-2-yl)benzamide] | 712 | 3.9 | 4.1 | – | – | – | – | – | – | – | 5.6 | – | – | –
9 | CC#CC(=O)N1[C@H]2CC[C@@H]1[C@@H](c1nc(-c3ccc(C(=O)Nc4ccccn4)cc3)c3c(N)nccn13)C2 [Example 119, 4-(8-amino-3-((1R,2S,4S)-7-(but-2-ynoyl)-7-azabicyclo[2.2.1]heptan-2-yl)imidazo[1,5-a]pyrazin-1-yl)-N-(pyridin-2-yl)benzamide] | > 1000 | 2.4 | 0.42 | – | – | – | – | – | – | – | 43 | – | – | –
10 | C=CC(=O)N1CC2CCC1(c1nc(-c3ccc(C(=O)Nc4ccccn4)cc3)c3c(N)nccn13)CC2 [Example 120, 4-(3-(2-acryloyl-2-azabicyclo[2.2.2]octan-1-yl)-8-aminoimidazo[1,5-a]pyrazin-1-yl)-N-(pyridin-2-yl)benzamide] | 921 | 6.4 | 4.1 | – | – | – | – | – | – | – | 24 | – | – | –
11 | C=CC(=O)N1CC2(CC2)C[C@H]1c1nc(-c2cccc(C(=O)Nc3ccccn3)c2)c2c(N)nccn12 [Example 124, (S)-3-(3-(5-acryloyl-5-azaspiro[2.4]heptan-6-yl)-8-aminoimidazo[1,5-a]pyrazin-1-yl)-N-(pyridin-2-yl)benzamide] | 629 | 11.8 | 1.5 | – | – | – | – | – | – | – | 18 | – | – | –
12 | C=CC(=O)N1CC2(CC2)C[C@H]1c1nc(-c2ccccc2C(=O)Nc2ccccn2)c2c(N)nccn12 [Example 125, (S)-2-(3-(5-acryloyl-5-azaspiro[2.4]heptan-6-yl)-8-aminoimidazo[1,5-a]pyrazin-1-yl)-N-(pyridin-2-yl)benzamide] | > 1000 | 24.9 | 8.7 | – | – | – | – | – | – | – | 58 | – | – | –
13 | C=CC(=O)N1C(c2nc(-c3ccc(C(=O)Nc4ccccn4)cc3)c3c(N)nccn23)[C@@H]2C[C@H]1CN2C(=O)OC(C)(C)C (stereo partly drawn) [Example 126, (1 S,4S)-tert-butyl-5-acryloyl-6-(8-amino-1-(4-(pyridin-2-carbamoyl)phenyl)imidazo[1,5-a]pyrazin-3-yl)-2,5-diazabicyclo[2.2.1]heptane-2-carboxylate] | – | – | – | – | – | – | – | – | – | – | 4.4 | 206 | 1.6 | 0.8
14 | C=CC(=O)N1CCC[C@@H](n2nc(-c3ccc(Oc4ccccc4)cc3)c3c(N)ncnc32)C1 [Ibrutinib, reference compound] | 705 | 0.28 | 0.41 | 2.67 | – | – | 218 | 217 | 19.8 | – | – | – | – | –
